The test system of test [1] is CEM-MTX (MTX-resistant mutant of CEM, mutation in the RFC). Kind of test: MTT cell growth inhibition, MTX-resistant CEM-MTX cells (Example 4). Format: cell-based, human. The conditions noted are these: for EC50: 72 hours, MTT assay, read-out: EC50, nMol CEM-MTX. As for the experimental part: A series of methotrexate derivatives were screened for their inhibitory effect on cell growth. Three tumor cell lines were used for this screen: i) human leukemia cell line CCRF-CEM which is MTX-sensitive (herein denoted as CEM), ii) a mutant of CEM cell line which is MTX-resistant due to a mutation in the RFC (herein denoted as CEM-MTX; provided by Dr. Y. Assraf, Technion, Israel), and iii) rat C6 glioma cell line.
(§1) Cells were seeded at a density of 10^4 cells/ml in RPMI medium supplemented with 10% FCS in 96 well plates. The cultured cells were incubated, during their linear growth phase, in the presence and absence of various concentrations of MTX derivatives. The tested compounds were prepared as 1 mM stock in absolute ethanol or DMSO and were diluted into the medium. The highest vehicle presence in the assay was 5% of the vehicle. After 72 hours at 37° C. the cytotoxic effect on the cells was estimated by using the colorimetric MTT assay (Mosmann (1983) J. Immunol Methods 65: 55-63) that measures mitochondrial reductase activity and serves for quantitative assessment of cellular viability. Drug concentration required for inhibiting the growth of 50% of cell population in culture over a 72 hour period incubation, is defined as EC50.
The EC50 values were calculated from dose response curves for each tested compound.

The subject of test [2] is Friend cells (an erythroleukemic cell line). Kind of test: MTT cytotoxicity, Friend cells (Example 5). As to conditions: 72 hour. It is filed as cell-based. As for the experimental part: The toxicity of methotrexate derivatives of the invention (DP-MTX) was evaluated in an additional cell-culture system. The doses required to inhibit the growth of cultured Friend cells (an erythroleukemic cell line) by 50%, over a 72 hour period (ED50), were determined using a mitochondrial viability (MTT) endpoint assay.
Friend cells were seeded at a density of 10^4 cells/ml in RPMI medium supplemented with 10% FCS in 96 well plates. The cultured cells were incubated, during their linear growth phase, in the presence and absence of various concentrations of MTX derivatives. After 72 hours at 37° C., cell viability was estimated by using the colorimetric MTT assay.

For a further test, the system named is rat C6 glioma cell line. Kind of test: MTT cell growth inhibition, C6 glioma cells (Example 4). It is filed as cell-based. The conditions noted are these: 72 hours, MTT assay; read-out: EC50, nMol C6 glioma. The protocol: as §1, with “A series of methotrexate derivatives were screened for their inhibitory effect on cell growth. Three tumor cell lines were used for this screen: i) human leukemia cell line CCRF-CEM which is MTX-sensitive (herein denoted as CEM), ii) a mutant of CEM cell line which is MTX-resistant due to a mutation in the RFC (herein denoted as CEM-MTX; provided by Dr. […], Technion, Israel), and iii) rat C6 glioma cell line. Cells” for “Cells”, “[…] The EC50 values were calculated from dose response curves” for “Drug concentration required”, “each tested compound.” for “inhibiting the growth of 50% of cell population in culture over a 72 hour period incubation, is defined as EC50.”

Test [3] has as its system human leukemia cell line CCRF-CEM (CEM). The experiment in a line: MTT cell growth inhibition, CEM cells (Example 4). It is filed as cell-based. The conditions noted are these: 72 hours, MTT assay; read-out: EC50, nMol CEM. The protocol: as §1, with “A series of methotrexate derivatives were screened for their inhibitory effect on cell growth. Three tumor cell lines were used for this screen: i) human leukemia cell line CCRF-CEM which is MTX-sensitive (herein denoted as CEM), ii) a mutant of CEM cell line which is MTX-resistant due to a mutation in the RFC (herein denoted as CEM-MTX; provided by Dr. […], Technion, Israel), and iii) rat C6 glioma cell line. Cells” for “Cells”, “[…] The EC50 values were calculated from dose response curves” for “Drug concentration required”, “each tested compound.” for “inhibiting the growth of 50% of cell population in culture over a 72 hour period incubation, is defined as EC50.”

A further test deals with PLA2. As to conditions: isoform not stated; read-out: IC50 of known inhibitors of PLA2; cited from earlier work.
Test [4] has as its system RFC-mediated MTX-resistant cell line (L1210-MTX). Kind of test: MTT cytotoxicity, L1210-MTX cells (Example 9). It is filed as cell-based. As to conditions: Mus musculus.
The next test concerns L1210. The experiment in a line: MTT cytotoxicity, parent L1210 cells (Example 9). It is filed as cell-based. The conditions noted are these: Mus musculus.

In the case of `CCCCCCCCCCCCCCCCCC(=O)OC[C@H](COP(=O)([O-])OCC[N+](C)(C)C)OC(=O)CCNC(=O)C(CCC(=O)O)NC(=O)c1ccc(N(C)Cc2cnc3nc(N)nc(N)c3n2)cc1` (stereo partly drawn) [DP-MTX-93, 1-Stearoyl-2-[3-(α-MTX amido)-Propanoyl]-sn-Glycero-3-phosphocholine], the figures for the EC50 (in test [1]; with rat C6 glioma cell line; in test [3]) were 4.65 µM, 0.417 µM and 0.027 µM, respectively. For the same compound, the “ED50” value in test [2] was determined as 97.5 nmol.
Taken in the same sequence, the figures for `CCCCCCCCCCCCCCCCCC(=O)OC[C@H](COP(=O)([O-])OCC[N+](C)(C)C)OC(=O)CCCCCNC(=O)C(CCC(=O)O)NC(=O)c1ccc(N(C)Cc2cnc3nc(N)nc(N)c3n2)cc1` (stereo partly drawn) [DP-MTX-106, 1-Stearoyl-2-[6-(α-MTX amido)-Hexanoyl]-sn-Glycero-3-phosphocholine] were 8.4 µM, 3.22 µM, 0.499 µM and 390 nmol.
As for `CCCCCCCCCCCCCCCCCC(=O)OC[C@H](COP(=O)([O-])OCC[N+](C)(C)C)OC(=O)CCCCCCCNC(=O)[C@H](CCC(=O)OCCCCCCCCCCCC)NC(=O)c1ccc(N(C)Cc2cnc3nc(N)nc(N)c3n2)cc1` [DP-MTX-127, 1-Stearoyl-2-[8-(γ-dodecylate-α-MTX amido)-Octanoyl]-sn-Glycero-3-phosphocholine], the half-maximal effective concentration (EC50) in the test with rat C6 glioma cell line came to 0.795 µM.
On to `CCCCCCCCCCCCCCCCCC(=O)OC[C@H](COP(=O)([O-])OCC[N+](C)(C)C)OC(=O)CCNC(=O)[C@H](CCC(=O)OCCCCCCCCCCCC)NC(=O)c1ccc(N(C)Cc2cnc3nc(N)nc(N)c3n2)cc1` [DP-MTX-128, 1-Stearoyl-2-[3-(γ-dodecylate-α-MTX amido)Propanoyl]-sn-Glycero-3-phosphocholine], for which the results for the half-maximal effective concentration (EC50) in test [1] and in test [3] were 1.6 µM and 0.771 µM, respectively.
Consider `CCCCCCCCCCCCCCCCCC(=O)OC[C@H](COP(=O)([O-])OCC[N+](C)(C)C)OC(=O)CCCNC(=O)C(CCC(=O)O)NC(=O)c1ccc(N(C)Cc2cnc3nc(N)nc(N)c3n2)cc1` (stereo partly drawn) [DP-MTX-129, 1-Stearoyl-2-[4-(α-MTX amido)-Butanoyl]-sn-Glycero-3-phosphocholine], for which the EC50 is 5.98 µM in test [1], 3.11 µM in the test with rat C6 glioma cell line and 0.821 µM in test [3]. Besides, the “ED50” value in test [2] is 97.5 nmol.
In the case of `CCCCCCCCCCCCCCCCCC(=O)OC[C@H](COP(=O)([O-])OCC[N+](C)(C)C)OC(=O)CCCCCCCNC(=O)C(CCC(=O)O)NC(=O)c1ccc(N(C)Cc2cnc3nc(N)nc(N)c3n2)cc1` (stereo partly drawn) [DP-MTX-142, 1-Stearoyl-2-[8-(α-MTX amido)-Octanoyl]-sn-Glycero-3-phosphocholine], the EC50 in test [1] worked out at 11.6 µM; in the test on rat C6 glioma cell line, 36 µM; in test [3], 6.34 µM. In test [2], the “ED50” value was determined as 3000 nmol.
As to `CC(Cc1ccc(O)c(O)c1)C(C)Cc1ccc(O)c(O)c1` (stereo not drawn) [NDGA], the IC50 in the test with PLA2 was 40 µM.
`CCN(CC)CCCC(C)Nc1c2ccc(Cl)cc2nc2ccc(OC)cc12` (stereo not drawn) [Quinacrine]: the IC50 with PLA2 is 390 µM.
For `CC(=O)O[C@H]1C(=O)[C@@]2(C)[C@H]([C@H](OC(=O)c3ccccc3)[C@]3(O)C[C@H](OC(=O)[C@H](O)[C@@H](NC(=O)c4ccccc4)c4ccccc4)C(C)=C1C3(C)C)[C@]1(OC(C)=O)CO[C@@H]1C[C@@H]2O` [TAX, Taxol], the EC50 (in test [4]; in the test with L1210) was 0.008 µM throughout.
For `CCCCCCCCCCCCOC(=O)[C@H](CCC(=O)O)NC(=O)c1ccc(N(C)Cc2cnc3nc(N)nc(N)c3n2)cc1` [α-C12H25-MTX, α:-dodecylate-MTX], in test [1], the “inhibiting the growth of the MTX-resistant cell line, CEM-MTX (in words)” value (“inhibiting the growth” below) was “not effective” and the EC50 is 9.42 µM. Also, in test [3], the EC50 was determined as 0.088 µM.
Regarding `CCCCCCCCCCCCOC(=O)CC[C@H](NC(=O)c1ccc(N(C)Cc2cnc3nc(N)nc(N)c3n2)cc1)C(=O)OCCCCCCCCCCCC` [α-C12H25-MTX-γ-C12H25, α-dodecylate-MTX-γ-dodecylate], the “inhibiting the growth” value in test [1] is reported as “not effective”. For the same compound, the half-maximal effective concentration (EC50) in test [1] worked out at 5.09 µM; with rat C6 glioma cell line it was 0.807 µM; in test [3], 4.86 µM.
Take `CCCCCCCCCCCCOC(=O)CC[C@H](NC(=O)c1ccc(N(C)Cc2cnc3nc(N)nc(N)c3n2)cc1)C(=O)O` [γ-C12H25-MTX, γ-dodecylate-MTX]: in test [1], the “inhibiting the growth” value is “not effective” and the EC50 was found to be 4.86 µM. The 50% effective concentration (EC50) in test [3] came to 0.013 µM.

By EC50 is commonly meant the midpoint of the concentration-response curve. Usually IC50 stands for the concentration needed to halve the response being measured.

The record behind these values is patent US6774121B1, “Phospholipid prodrugs of anti-proliferative drugs” (D-Pharm, Ltd., priority 1999, dated 2004).
